Literature values, collected in patent US6045800A, “Composition for preventing or treating periodontal diseases comprising extract from Achyranthis radix or Ulmus cortex” (LG Chemical Ltd., priority 1997, dated 2000).

System: periodontal diseases

SMILES: CN(C)C1C(=O)C(C(N)=O)=C(O)C2(O)C(=O)C3=C(O)c4c(O)cccc4C(C)(O)C3CC12 (stereo not drawn) [tetracycline]
- clinical effect on the symptom of the disease (1000 mg/day for 5 to 7 days): relieved to a clinically normal state
- clinical effect of long term administration (daily dose of 1000 mg for 2 weeks, then 250 mg once daily for 48 weeks): gingivitis has clinically decreased
- side effects (use of the antibiotic): vomiting, a complaint for the ache of gastrointestinal tracts, diarrhea, dental coloring
